Measured values as given in patent US4889906A, “Amine salts of 1,4,2-oxazaphospholidine-4-acetic acid, 2-alkoxy-2-oxides” (Monsanto Company, priority 1988, dated 1989).
“And” between values parts separate entries of the source, which are not always exact repeats. Equal entries are not always repeated. Structures can show the parent of a compound that is named as a salt.

Experiments:
Format in all cases: in vivo
[1] = tested on: Yellow Nutsedge; experiment: Post-emergent herbicide activity, greenhouse; details: 5.6 g/m^2
Source text: (§1) Top soil was placed in pans having holes in the bottom and compacted to a depth of 0.95 to 1.27 cm from the top of the pan. A predetermined number of seeds of each of several plant species or vegetative propagules for perennial plant species were placed on the soil and pressed into the soil surface. The seeds or propagules were covered with soil and leveled. The pans were then placed on a bench in the greenhouse and watered as needed for germination and growth. After the plants reached the desired age (2 to 3 weeks) each pan, except the control pans, was removed to a spraying chamber and sprayed by means of an atomizer. In the spray solution, an emulsifying agent was added to give a spray solution which contains about 0.4% by volume of the emulsifier. The spray solution contained a sufficient amount of the compound of Example 1 to give an application rate of the active ingredient of 2.8 g/m^2 (25 lbs. per acre) and 5.6 g/mz (50 lbs. per acre), while applying a total amount of solution equivalent to 187 ml/m^2 (200 gal per acre). The pans were returned to the greenhouse and watered as before, and the injury to the plants as compared to those in control pans was observed after 14 days after spraying, and again, 27 days after spraying.

[2] = tested on: Rhizone Johnsongrass; experiment: Post-emergent herbicide activity, greenhouse; details: 5.6 g/m^2
Source text: as §1

[3] = tested on: Downy Brome; experiment: Post-emergent herbicide activity, greenhouse; details: 5.6 g/m^2
Source text: as §1

[4] = tested on: Barnyardgrass; experiment: Post-emergent herbicide activity, greenhouse; details: 5.6 g/m^2
Source text: as §1

[5] = tested on: Cocklebur; experiment: Post-emergent herbicide activity, greenhouse; details: 5.6 g/m^2
Source text: as §1

[6] = tested on: Quackgrass; experiment: Post-emergent herbicide activity, greenhouse; details: 5.6 g/m^2
Source text: as §1

[7] = tested on: Velvetleaf; experiment: Post-emergent herbicide activity, greenhouse; details: 5.6 g/m^2
Source text: as §1

[8] = tested on: Pennsylvania Smartweed; experiment: Post-emergent herbicide activity, greenhouse; details: 5.6 g/m^2
Source text: as §1

[9] = tested on: Common Lambsquarters; experiment: Post-emergent herbicide activity, greenhouse; details: 5.6 g/m^2
Source text: as §1

[10] = tested on: Canada Thistle; experiment: Post-emergent herbicide activity, greenhouse; details: 5.6 g/m^2
Source text: as §1

[11] = tested on: Morningglory; experiment: Post-emergent herbicide activity, greenhouse; details: 5.6 g/m^2
Source text: as §1

[12] = tested on: fescue (Kentucky bluegrass No. 31); experiment: Plant growth regulating activity, greenhouse; details: 0.56 g/m^2 (5 lbs. per acre), two weeks
Procedure: Established stands of fescue (Kentucky bluegrass No. 31) in pots having an area of about 100 cm (16 square inches) were trimmed to a uniform height. Duplicate pots were removed to a spraying chamber and sprayed by means of an atomizer as in Example 3. The application rate of the active ingredient was 0.56 g/m^2 (5 lbs. per acre) while applying a total amount of solution equivalent to 187 ml/m^2 (200 gal/acre). The pots were returned to the greenhouse and watered with the controls on a daily basis. After two weeks, the height of the grass was measured.

[13] = tested on: plants; experiment: Biological activity, greenhouse tests according to Examples 3 and 4; details: according to the procedure of Examples 3 and 4
Source text: as §1, with “The pans were returned to the greenhouse and watered as before, and the injury to the plants as compared to those in control pans was observed after 14 days after spraying, and again, 27 days after spraying.” left out
Established stands of fescue (Kentucky bluegrass No. 31) in pots having an area of about 100 cm (16 square inches) were trimmed to a uniform height. […] After two weeks, the height of the grass was measured. […]

SMILES: COP1(=O)CN(CC(=O)O)CO1 (stereo not drawn) [Example 1, triethylamine salt of 1,4,2-oxazaphospholidine-4-acetic acid, 2-methoxy-2-oxide]
- Plant Response After 14 Days ([1]; 14 days after spraying): 0 (0-24% inhibition)
- Plant Response After 27 Days ([1]; 27 days after spraying): 1 (25-49% inhibition)
- Plant Response After 14 Days ([2]; 14 days after spraying): 0 (0-24% inhibition)
- Plant Response After 27 Days ([2]; 27 days after spraying): 0 (0-24% inhibition)
- Plant Response After 14 Days ([3]; 14 days after spraying): 0 (0-24% inhibition)
- Plant Response After 27 Days ([3]; 27 days after spraying): 0 (0-24% inhibition)
- Plant Response After 14 Days ([4]; 14 days after spraying): 1 (25-49% inhibition)
- Plant Response After 27 Days ([4]; 27 days after spraying): 1 (25-49% inhibition)
- Plant Response After 14 Days ([5]; 14 days after spraying): 1 (25-49% inhibition)
- Plant Response After 27 Days ([5]; 27 days after spraying): 1 (25-49% inhibition)
- Plant Response After 14 Days ([6]; 14 days after spraying): 0 (0-24% inhibition)
- Plant Response After 27 Days ([6]; 27 days after spraying): 1 (25-49% inhibition)
- Plant Response After 14 Days ([7]; 14 days after spraying): 0 (0-24% inhibition)
- Plant Response After 27 Days ([7]; 27 days after spraying): 0 (0-24% inhibition)
- Plant Response After 14 Days ([8]; 14 days after spraying): 0 (0-24% inhibition)
- Plant Response After 27 Days ([8]; 27 days after spraying): 0 (0-24% inhibition)
- Plant Response After 14 Days ([9]; 14 days after spraying): 0 (0-24% inhibition)
- Plant Response After 27 Days ([9]; 27 days after spraying): 0 (0-24% inhibition)
- Plant Response After 14 Days ([10]; 14 days after spraying): 0 (0-24% inhibition)
- Plant Response After 27 Days ([10]; 27 days after spraying): 0 (0-24% inhibition)
- Plant Response After 14 Days ([11]; 14 days after spraying): 1 (25-49% inhibition)
- Plant Response After 27 Days ([11]; 27 days after spraying): 1 (25-49% inhibition)
- average growth rate of treated fescue relative to controls [12]: 43 % of the controls
- growth of treated grass over two-week period ([12]; duplicate pots, control pots grew average 199.58 mm): 80 mm and 90 mm
- discoloration or other sign of phytotoxicity ([12]; fescue): did not show any discoloration or other sign of phytotoxicity

SMILES: COP1(=O)CN(CC(=O)O)CO1 (stereo not drawn) [Example 2, 1,4,2-oxazaphospholidine-4-acetic acid, 2-alkoxy-2-oxide]
- biological activity (post-emergent herbicide and plant growth regulating), in words [13]: Satisfactory results are achieved

SMILES: COP1(=O)CN(CC(=O)O)CO1 (stereo not drawn) [Example 5, Triisopropylamine Salt of 1,4,2-Oxazaphospholidine-4-Acetic Acid, 2-Methoxy-2-Oxide]
- biological activity (post-emergent herbicide and plant growth regulating), in words [13]: Satisfactory results are achieved
